The test system of one assay is NMCdkn2a^ARF−/− cells. As to the kind of experiment: Colony formation assay on NMCdkn2a^ARF−/− cells. It is filed as cell-based, murine. To be noted: 5 days, read-out: EC (NMCdkn2a^ARF−/−). The text has this: (§1) To evaluate the effect of small molecules equipped with R-spine interacting moieties, the inventors screened a focused library of proprietary p38a MAP-Kinase inhibitors which were equipped with R-spine interacting pharmacophores. To this end, the inventors utilized a screening system as developed in Dauch et al.^2 The screening system is based on colony formation assays of cell lines isolated from Nras-driven, Trp53-deficient murine HCCs, whose development is dependent on MYC (NMP53^−/− cells), as well as Nras-driven, Cdkn2a^ARF-deficient murine HCCs, which develop independently of MYC (NMCdkn2a^ARF−/− cells). Importantly, NMP53^−/− cells are sensitive to AURKA inhibitors, which induce a conformational shift in AURKA, whereas NMCdkn2a^ARF−/− are not sensitive to such compounds.
(§2) For Colony Formation Assays, cells were seeded at a density of 50 000 cells per 6 well and next day treated with a 2-fold dilution series of the indicated compounds or the highest corresponding DMSO concentration as control. After 5 days, the cells were fixed with a 10% formaldehyde solution for 30 min, washed once with water, stained with a 0.5% crystal violet solution for 30 min and washed twice with water. The compounds effective concentration (EC) was determined according to the lowest concentration in the dilution series, that inhibited cell growth substantially. The resulting benzamide containing hit structure 1, with a twofold selectivity towards NMP53^−/− cells (effective concentration on NMP53^−/− cells (EC): 2 μM, EC on Cdkn2a^ARF−/−: 4 μM, FIG. 1), served as the inventors' starting point for further compound development.

For the next assay, the target named is AURKA (Homo sapiens (Human), UniProt O14965). Briefly: Radioisotope filter binding assay (HotSpotSM; ReactionBiology) for AURKA kinase inhibition. The class given is biochemical. The text has this:
Table 2 summarizes the EC values of different compounds of this invention determined by colony formation assays on NMP53^−/− and NMCdkn2a^ARF−/− cells, as well as the corresponding IC50 values for the kinase inhibition of AURKA, determined by radioisotope filter binding assay (HotSpotSM; ReactionBiology). Most compounds further show a strong selectivity for NMP53^−/− cells, which is indicated by a lower EC concentration of a particular compound required for inhibiting cell growth of NMP53^−/− cells compared to NMCdkn2a^ARF−/− cells.

Another assay deals with NMP53^−/− cells. As to the kind of experiment: Colony formation assay on NMP53^−/− cells. It is filed as cell-based, murine. To be noted: colony formation assay; for minimal effective concentration: 5 days, read-out: EC (NMP53^−/−); for selectivity for NMP53^−/− cells: NMP53^−/− versus NMCdkn2a^ARF−/− cells.
From the text: as §1, §2

Where [1] appears, read: Mus musculus, 120 h, lowest concentration of 2-fold dilution series that inhibited cell growth substantially.

pIC50: −log10 of the molar value. Like-named read-outs stand apart in the source and are kept apart here.

Usually pIC50 stands for the negative decadic logarithm of the IC50, by convention in mol/L. High values mean a low IC50, low ones a high IC50.

Sequence of AURKA (O14965 whole entry): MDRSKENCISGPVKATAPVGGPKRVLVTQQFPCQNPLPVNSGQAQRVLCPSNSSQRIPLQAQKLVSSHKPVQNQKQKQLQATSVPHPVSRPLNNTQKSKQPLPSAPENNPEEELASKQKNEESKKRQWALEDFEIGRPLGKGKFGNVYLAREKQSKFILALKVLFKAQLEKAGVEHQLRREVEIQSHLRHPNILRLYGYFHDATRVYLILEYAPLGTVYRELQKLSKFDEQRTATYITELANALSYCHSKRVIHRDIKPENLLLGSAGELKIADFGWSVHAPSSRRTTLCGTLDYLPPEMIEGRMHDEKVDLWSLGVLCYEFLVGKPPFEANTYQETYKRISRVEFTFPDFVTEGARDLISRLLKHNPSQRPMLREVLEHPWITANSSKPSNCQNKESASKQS

With `Cn1cc(-c2ccc(CNc3ccc(F)c(NC(=O)CCc4ccccc4)c3)cc2)cn1` [Compound 97, N-(2-fluoro-5-((4-(1-methyl-1H-pyrazol-4-yl)benzyl)amino)phenyl)-3-phenylpropanamide], the minimal effective concentration is 1 µM with NMCdkn2a^ARF−/− cells (Mus musculus, 120 h) and 0.25 µM in the assay on NMP53^−/− cells (Mus musculus, 120 h). Also, on AURKA, the negative-log IC50 (pIC50) was 6.27.

Consider `Cn1cc(-c2ccc(CNc3ccc(F)c(NC(=O)C=Cc4ccccc4)c3)cc2)cn1` [Compound 107s, N-(2-fluoro-5-((4-(1-methyl-1H-pyrazol-4-yl)benzyl)amino)phenyl)cinnamamide], for which the minimal effective concentration in the assay with NMCdkn2a^ARF−/− cells (Mus musculus, 120 h) is more than 1 µM; with NMP53^−/− cells (Mus musculus, 120 h), 0.5 µM. This compound also gave a pIC50 on AURKA of less than 5.00.

In the case of `O=C(CCc1ccccc1)Nc1cc(NCc2ccc(-c3cn[nH]c3)cc2)ccc1F` [Compound 2a, N-(5-((4-(1H-pyrazole-4-yl)benzyl)amino)-2-fluorophenyl)-3-phenylpropanamide], the minimal effective concentration in the assay with NMCdkn2a^ARF−/− cells was more than 4 µM; with NMCdkn2a^ARF−/− cells (setting [1]) it was 2 µM; in the assay with NMP53^−/− cells (setting [1]) it was 0.5 µM; with NMP53^−/− cells, more than 4 µM. On AURKA, this compound gave a pIC50 of 5.16. In the assay on NMP53^−/− cells, the “selectivity for NMP53^−/− cells” value amounted to 4 fold.

Turning to `O=C(Cc1ccccc1)Nc1cc(NCc2cc(-c3cc4cccnc4[nH]3)ccn2)ccc1F` [Compound 18c, N-(5-(((4-(1H-Pyrrolo[2,3-b]pyridin-2-yl)pyridin-2-yl)methyl)amino)-2-fluorophenyl)-2-phenylacetamide], the minimal effective concentration came to 0.5 µM in the assay on NMCdkn2a^ARF−/− cells (Mus musculus, 120 h) and 0.25 µM in the assay on NMP53^−/− cells (Mus musculus, 120 h). Moreover, the pIC50 on AURKA was less than 5.00.

Turning to `Cn1cc(-c2ccc(CNc3ccc(F)c(NC(=O)/C=C/c4ccco4)c3)cc2)cn1` [Compound 107r, (E)-N-(2-fluoro-5-((4-(1-methyl-1H-pyrazol-4-yl)benzyl)amino)phenyl)-3-(furan-2-yl)acrylamide], the minimal effective concentration with NMCdkn2a^ARF−/− cells (Mus musculus, 120 h) was more than 0.25 µM; in the assay with NMP53^−/− cells (Mus musculus, 120 h), 0.062 µM. On AURKA, this compound gave a pIC50 of less than 5.00.

As to `Cn1cc(-c2ccc(CNc3ccc(F)c(NC(=O)CCc4ccsc4)c3)cc2)cn1` [Compound 107p, N-(2-fluoro-5-((4-(1-methyl-1H-pyrazol-4-yl)benzyl)amino)phenyl)-3-(thiophen-3-yl)propanamide], the minimal effective concentration in the assay with NMCdkn2a^ARF−/− cells (Mus musculus, 120 h) is more than 0.25 µM; with NMP53^−/− cells (Mus musculus, 120 h) it was 0.062 µM. Further, the pIC50 at AURKA was less than 5.00.

`Cn1cc(-c2ccc(CNc3ccc(F)c(NC(=O)CCc4cccs4)c3)cc2)cn1` [Compound 107o, N-(2-fluoro-5-((4-(1-methyl-1H-pyrazol-4-yl)benzyl)amino)phenyl)-3-(thiophen-2-yl)propanamide]: the minimal effective concentration was found to be 1 µM with NMCdkn2a^ARF−/− cells (Mus musculus, 120 h) and 0.125 µM in the assay with NMP53^−/− cells (Mus musculus, 120 h). Further, the pIC50 at AURKA was less than 5.00.

Turning to `O=C(CCc1ccccc1)Nc1cc(NCc2ccc(-c3cn[nH]c3)cc2)ccc1F` [Compound 95b, N-(5-((4-(1H-Pyrazol-4-yl)benzyl)amino)-2-fluorophenyl)-3-phenylpropanamide], the minimal effective concentration with NMCdkn2a^ARF−/− cells (Mus musculus, 120 h) was 2 µM; with NMP53^−/− cells, 0.5 µM. This compound had a pIC50 on AURKA of 8.10.

`Cn1cc(-c2ccc(CNc3ccc(F)c(NC(=O)CCc4ccoc4)c3)cc2)cn1` [Compound 107n, N-(2-fluoro-5-((4-(1-methyl-1H-pyrazol-4-yl)benzyl)amino)phenyl)-3-(furan-3-yl)propanamide]: the minimal effective concentration in the assay with NMCdkn2a^ARF−/− cells (Mus musculus, 120 h) is more than 0.25 µM; in the assay on NMP53^−/− cells (Mus musculus, 120 h) it was 0.062 µM. Further, on AURKA, the pIC50 is less than 5.00.

`Cn1cc(-c2ccc(CNc3ccc(F)c(NC(=O)CCc4ccco4)c3)cc2F)cn1` [Compound 128a, N-(2-fluoro-5-((3-fluoro-4-(1-methyl-1H-pyrazol-4-yl)benzyl)amino)phenyl)-3-(furan-2-yl)propanamide]: the minimal effective concentration in the assay on NMCdkn2a^ARF−/− cells (Mus musculus, 120 h) is 0.125 to 0.25 µM; with NMP53^−/− cells (Mus musculus, 120 h) it was 0.032 µM.

Turning to `CCCn1cc(-c2ccc(CNc3ccc(F)c(NC(=O)CCc4ccco4)c3)cc2)cn1` [Compound 3c, N-(2-fluoro-5-((4-(1-propyl-1H-pyrazole-4-yl)benzyl)amino)phenyl)-3-(furan-2-yl)propanamide], the minimal effective concentration in the assay on NMCdkn2a^ARF−/− cells (setting [1]) was more than 4 µM; with NMCdkn2a^ARF−/− cells (Mus musculus, 120 h), more than 4 µM; with NMP53^−/− cells (setting [1]), 4 µM; with NMP53^−/− cells (Mus musculus, 120 h) it was 4 µM. Moreover, in the assay with NMP53^−/− cells, the “selectivity for NMP53^−/− cells” value is on record as “loss of selectivity”.

Turning to `Cn1cc(-c2ccc(CNc3ccc(F)c(NC(=O)CCc4ccco4)c3)c(F)c2)cn1` [Compound 128c, N-(2-fluoro-5-((2-fluoro-4-(1-methyl-1H-pyrazol-4-yl)benzyl)amino)phenyl)-3-(furan-2-yl)propanamide], the minimal effective concentration is 0.5 to 1 µM with NMCdkn2a^ARF−/− cells (Mus musculus, 120 h) and 0.125 µM in the assay on NMP53^−/− cells (Mus musculus, 120 h).

`CN(C(=O)CCc1ccco1)c1cc(NCc2ccc(-c3cnn(C)c3)cc2)ccc1F` [Compound 4, N-(2-fluoro-5-((4-(1-methyl-1H-pyrazole-4-yl)benzyl)amino)phenyl)-3-(furan-2-yl)-N-methylpropanamide]: the minimal effective concentration is more than 4 µM in the assay with NMCdkn2a^ARF−/− cells (setting [1]); more than 4 µM in the assay on NMCdkn2a^ARF−/− cells (Mus musculus, 120 h); more than 4 µM in the assay with NMP53^−/− cells (setting [1]); more than 4 µM in the assay on NMP53^−/− cells (Mus musculus, 120 h); more than 4 µM with NMP53^−/− cells (lowest concentration of 2-fold dilution series that inhibited cell growth substantially).

As for `CC(C)n1cc(-c2ccc(CNc3ccc(F)c(NC(=O)CCc4ccco4)c3)cc2)cn1` [Compound 3d, N-(2-fluoro-5-((4-(1-isopropyl-1H-pyrazole-4-yl)benzyl)amino)phenyl)-3-(furan-2-yl)propanamide], the minimal effective concentration in the assay on NMCdkn2a^ARF−/− cells (setting [1]) stood at 4 µM; in the assay with NMCdkn2a^ARF−/− cells (Mus musculus, 120 h), 4 µM; in the assay with NMP53^−/− cells (setting [1]), 4 µM; with NMP53^−/− cells (Mus musculus, 120 h), 4 µM. Moreover, the “selectivity for NMP53^−/− cells” value with NMP53^−/− cells was “loss of selectivity”.

Turning to `Cn1cc(-c2ccc(CNc3ccc(F)c(NC(=O)CCc4ccco4)c3)cc2)c(N)n1` [Compound 145, N-(5-((4-(3-Amino-1-methyl-1H-pyrazol-4-yl)benzyl)amino)-2-fluorophenyl)-3-(furan-2-yl)propanamide], the minimal effective concentration is more than 1 µM in the assay with NMCdkn2a^ARF−/− cells (Mus musculus, 120 h) and 0.25 µM in the assay with NMP53^−/− cells (Mus musculus, 120 h).

On to `Cn1cc(-c2ccc(CNc3ccc(F)c(NC(=O)CCC4CCCO4)c3)cc2)cn1` (stereo not shown) [Compound 107g, N-(2-fluoro-5-((4-(1-methyl-1H-pyrazol-4-yl)benzyl)amino)phenyl)-3-(tetrahydrofuran-2-yl)propanamide], for which the minimal effective concentration was determined as 2 µM with NMCdkn2a^ARF−/− cells (Mus musculus, 120 h) and 0.125 µM in the assay on NMP53^−/− cells (Mus musculus, 120 h).

Take `Cc1ccc(CCC(=O)Nc2cc(NCc3ccc(-c4cn[nH]c4)cc3)ccc2F)o1` [Compound 106h, N-(5-((4-(1H-Pyrazol-4-yl)benzyl)amino)-2-fluorophenyl)-3-(5-methylfuran-2-yl)propanamide]: the minimal effective concentration in the assay with NMCdkn2a^ARF−/− cells (Mus musculus, 120 h) amounted to 2 µM; in the assay on NMP53^−/− cells (Mus musculus, 120 h), 0.25 µM.

Values taken from patent publication US20240101538A1, “PROTEIN-PROTEIN INTERACTION MODULATORS OF AURORA KINASE A AND THEIR USE IN THE PREVENTION AND/OR TREATMENT OF CANCER” (EBERHARD KARLS UNIVERSITÄT TÜBINGEN, priority 2020, published 2024).
